According to patent EP4722201A1, “3-PHENYLISOXAZOLINE-5-CARBOXAMIDE COMPOUND, AND PREPARATION METHOD THEREFOR, HERBICIDAL COMPOSITION THEREOF AND USE THEREOF” (Jiangsu Flag Chemical Industry Co., Ltd, priority 2023, dated 2024):

Tests used:
Test in all cases: Indoor herbicide activity determination, Seed Treatment; pre-emergence (soil spray)
Format in all cases: in vivo
Lolium multiflorum = tested on: Lolium multiflorum
Source text: (§1) The testing method for herbicide activity of the compound of the present invention was as follows:
(§2) Seed Treatment; pre-emergence: quantitative seeds of gramineous weeds (Echinochloa crusgalli, Eleusine indica, Digitaria sanguinalis, Alopecurus japonicus, Beckmannia syzigachne, Leptochloa chinensis, Polypogon fugax, Alopecurus aequalis, Lolium multiflorum, Poa annua, Aegilops tauschii, Avena fatua, Alopecurus myosuroides, Alopecurus japonicus and Alopecurus aequalis), broad-leaved weeds (Eclipta prostrata, Amaranthus retroflexus, Rorippa indica, Malachium aquaticum, Veronica polita, Conyza canadensis, Sesbania cannabina, Sagittariatrifolia and Schoenoplectiella juncoides), and Cyperus iria were sown in plastic pots having a diameter of 7 cm and holes at the bottom and filled with nutrient soil (sandy soil, pH 6.1, organic matter 1%) respectively, the seeds were covered with an appropriate amount of soil after being sown, then the soil was wetted with water from the bottom, the seeds were cultured in a constant-temperature illuminated culture room for 24 h, and the soil was sprayed by using a 3WP-2000 traveling spray tower produced by the Nanjing Institute of Agricultural Mechanization of the Ministry of Agriculture, where a rotational speed of a main shaft was 96 mm/r, a spray height was 300 mm, an effective spraying range of a nozzle was 350 mm, a spray area was 0.35 m^2, and a flow rate at the nozzle was 390 mL/min.
(§3) Post-emergence: an appropriate quantity of seeds of gramineous weeds (Echinochloa crusgalli, Eleusine indica, Digitaria sanguinalis, Alopecurus japonicus, Beckmannia syzigachne, Leptochloa chinensis, Polypogon fugax, Alopecurus aequalis, Lolium multiflorum, Poa annua, Aegilops tauschii, Avena fatua, Alopecurus myosuroides, Alopecurus japonicus and Alopecurus aequalis), broad-leaved weeds (Eclipta prostrata, Amaranthus retroflexus, Rorippa indica, Malachium aquaticum, Veronica polita, Conyza canadensis, Sesbania cannabina, Sagittariatrifolia and Schoenoplectiella juncoides), and Cyperus iria were sown in plastic pots having a diameter of 7 cm and holes at the bottom and filled with nutrient soil (sandy soil, pH 6.1, organic matter 1%) respectively, the seeds were covered with an appropriate amount of soil after being sown, then the soil was wetted with water from the bottom, the seeds were cultured in a constant-temperature illuminated culture room until a 2-4 leaf stage, and stems and leaves underwent spray treatment. After the treatment, the test materials were placed in a laboratory and cultured in the constant-temperature illuminated culture room after the liquid was naturally dry in the shade, and results were determined 21 days later. Inhibition rate of fresh weight % = (1−(fresh weight of treated plants)/(fresh weight of control plants)) × 100% [formula]

Alopecurus japonicus = tested on: Alopecurus japonicus
Source text: as §1, §2, §3

Alopecurus myosuroides = tested on: Alopecurus myosuroides
Source text: as §1, §2, §3

Cyperus iria = conditions: read-out: Herbicidal activities (inhibition rate) Cyperus iria; for inhibition at 120 g/ha: 120 g a.i./ha; for inhibition at 60 g/ha: 60 g a.i./ha
Source text: as §1, §2, §3

Leptochloa chinensis = tested on: Leptochloa chinensis
Source text: as §1, §2, §3

Eleusine indica = tested on: Eleusine indica
Source text: as §1, §2, §3

Aegilops tauschii = conditions: 120 g a.i./ha, read-out: Herbicidal activities (inhibition rate) Aegilops tauschii
Source text: as §1, §2, §3

Eclipta prostrata = conditions: 60 g a.i./ha, read-out: Herbicidal activities (inhibition rate) Eclipta prostrata
Source text: as §1, §2, §3

Row | SMILES | inhibition at 60 g/ha (Cyperus iria) [%] | Herbicidal activities, Leptochloa chinensis (inhibition rate class) (Leptochloa chinensis; Dosage 120 g a.i./ha) | Herbicidal activities, Eleusine indica (inhibition rate class) (Eleusine indica; Dosage 120 g a.i./ha) | inhibition at 60 g/ha (Eclipta prostrata) [%] | Herbicidal activity (inhibition rate class), Leptochloa chinensis (Leptochloa chinensis; Dosage 120 g a.i./ha) | Herbicidal activity (inhibition rate class), Eleusine indica (Eleusine indica; Dosage 120 g a.i./ha) | further results
1 | CSCCOC(=O)[C@@H]1C=C[C@H](NC(=O)C2(C)CC(c3cc(F)cc(C(F)(F)F)c3)=NO2)C1 (stereo partly shown) [I-497] | – | – | – | – | – | – | Herbicidal activity (inhibition rate class), Lolium multiflorum (Lolium multiflorum; Dosage 240 g a.i./ha): A (A indicates that the inhibition rate was greater than or equal to 80% to 100%); Herbicidal activity (inhibition rate class), Alopecurus japonicus (Alopecurus japonicus; Dosage 240 g a.i./ha): A (A indicates that the inhibition rate was greater than or equal to 80% to 100%); Herbicidal activity (inhibition rate class), Alopecurus myosuroides (Alopecurus myosuroides; Dosage 240 g a.i./ha): A (A indicates that the inhibition rate was greater than or equal to 80% to 100%); inhibition at 120 g/ha (Cyperus iria): 80 to 100%; Herbicidal activity (inhibition rate class), Leptochloa chinensis (Leptochloa chinensis; Dosage 240 g a.i./ha): A (A indicates that the inhibition rate was greater than or equal to 80% to 100%); Herbicidal activity (inhibition rate class), Eleusine indica (Eleusine indica; Dosage 240 g a.i./ha): A (A indicates that the inhibition rate was greater than or equal to 80% to 100%); inhibition at 120 g/ha (Aegilops tauschii): 80 to 100%
2 | C=C[C@]1(C(=O)N[C@H]2C=C[C@@H](C(=O)OCCCCCCC)C2)CC(c2cc(F)cc(C(F)(F)F)c2)=NO1 [I-431] | 80 to 100 | A (A indicates that the inhibition rate was greater than or equal to 80% to 100%) | A (A indicates that the inhibition rate was greater than or equal to 80% to 100%) | 80 to 100 | – | – | Herbicidal activities, Lolium multiflorum (inhibition rate class) (Lolium multiflorum; Dosage 120 g a.i./ha): A (A indicates that the inhibition rate was greater than or equal to 80% to 100%); Herbicidal activities, Alopecurus japonicus (inhibition rate class) (Alopecurus japonicus; Dosage 120 g a.i./ha): A (A indicates that the inhibition rate was greater than or equal to 80% to 100%); Herbicidal activities, Alopecurus myosuroides (inhibition rate class) (Alopecurus myosuroides; Dosage 120 g a.i./ha): A (A indicates that the inhibition rate was greater than or equal to 80% to 100%)
3 | C=C[C@]1(C(=O)N[C@H]2C=C[C@@H](C(=O)OCc3ccccc3)C2)CC(c2cc(F)cc(C(F)(F)F)c2)=NO1 [I-439] | 80 to 100 | A (A indicates that the inhibition rate was greater than or equal to 80% to 100%) | A (A indicates that the inhibition rate was greater than or equal to 80% to 100%) | 80 to 100 | – | – | –
4 | C=C[C@]1(C(=O)N[C@H]2C=C[C@@H](C(=O)OC(C)C)C2)CC(c2cc(Cl)cc(C(F)(F)F)c2)=NO1 [I-483] | 80 to 100 | – | – | 80 to 100 | A (A indicates that the inhibition rate was greater than or equal to 80% to 100%) | A (A indicates that the inhibition rate was greater than or equal to 80% to 100%) | –
5 | C=CC1(C(=O)N[C@H]2C[C@@H](C(=O)OCCSC)C2)CC(c2cc(F)cc(F)c2)=NO1 (mixture of isomers) [I-8] | – | – | – | – | – | – | Herbicidal activities, Lolium multiflorum (inhibition rate class) (Lolium multiflorum; Dosage 240 g a.i./ha): A (A indicates that the inhibition rate was greater than or equal to 80% to 100%); Herbicidal activities, Alopecurus japonicus (inhibition rate class) (Alopecurus japonicus; Dosage 240 g a.i./ha): A (A indicates that the inhibition rate was greater than or equal to 80% to 100%); Herbicidal activities, Alopecurus myosuroides (inhibition rate class) (Alopecurus myosuroides; Dosage 240 g a.i./ha): A (A indicates that the inhibition rate was greater than or equal to 80% to 100%); inhibition at 120 g/ha (Cyperus iria): 80 to 100%; Herbicidal activities, Leptochloa chinensis (inhibition rate class) (Leptochloa chinensis; Dosage 240 g a.i./ha): A (A indicates that the inhibition rate was greater than or equal to 80% to 100%); Herbicidal activities, Eleusine indica (inhibition rate class) (Eleusine indica; Dosage 240 g a.i./ha): A (A indicates that the inhibition rate was greater than or equal to 80% to 100%); inhibition at 120 g/ha (Aegilops tauschii): 80 to 100%
6 | COC(=O)[C@@H]1C=C[C@H](NC(=O)[C@@]2(C(F)F)CC(c3cc(F)cc(C(F)(F)F)c3)=NO2)C1 [I-532] | 80 to 100 | – | – | 80 to 100 | A (A indicates that the inhibition rate was greater than or equal to 80% to 100%) | A (A indicates that the inhibition rate was greater than or equal to 80% to 100%) | –
7 | C#CC(CC)OC(=O)[C@@H]1C=C[C@H](NC(=O)[C@@]2(C)CC(c3cc(Cl)cc(C(F)(F)F)c3)=NO2)C1 (stereo partly shown) [I-514] | 80 to 100 | – | – | 80 to 100 | A (A indicates that the inhibition rate was greater than or equal to 80% to 100%) | A (A indicates that the inhibition rate was greater than or equal to 80% to 100%) | Herbicidal activity (inhibition rate class), Lolium multiflorum (Lolium multiflorum; Dosage 120 g a.i./ha): A (A indicates that the inhibition rate was greater than or equal to 80% to 100%); Herbicidal activity (inhibition rate class), Alopecurus japonicus (Alopecurus japonicus; Dosage 120 g a.i./ha): A (A indicates that the inhibition rate was greater than or equal to 80% to 100%); Herbicidal activity (inhibition rate class), Alopecurus myosuroides (Alopecurus myosuroides; Dosage 120 g a.i./ha): A (A indicates that the inhibition rate was greater than or equal to 80% to 100%)
8 | C=C[C@]1(C(=O)N[C@H]2C=C[C@@H](C(=O)OC)C2)CC(c2cc(Cl)cc(OC(F)(F)F)c2)=NO1 [I-471] | 80 to 100 | – | – | 80 to 100 | A (A indicates that the inhibition rate was greater than or equal to 80% to 100%) | A (A indicates that the inhibition rate was greater than or equal to 80% to 100%) | –
9 | O=C(N[C@H]1C[C@@H](C(=O)OC2CCCC2)C1)[C@@]1(C(F)(F)F)CC(c2cc(F)cc(OC(F)(F)F)c2)=NO1 [I-253] | 80 to 100 | A (A indicates that the inhibition rate was greater than or equal to 80% to 100%) | A (A indicates that the inhibition rate was greater than or equal to 80% to 100%) | 60 to 80 | – | – | Herbicidal activities, Alopecurus japonicus (inhibition rate class) (Alopecurus japonicus; Dosage 120 g a.i./ha): A (A indicates that the inhibition rate was greater than or equal to 80% to 100%); Herbicidal activities, Alopecurus myosuroides (inhibition rate class) (Alopecurus myosuroides; Dosage 120 g a.i./ha): A (A indicates that the inhibition rate was greater than or equal to 80% to 100%)
10 | C=CC(C)OC(=O)[C@@H]1C=C[C@H](NC(=O)[C@@]2(C=C)CC(c3cc(F)cc(C(F)(F)F)c3)=NO2)C1 (stereo partly shown) [I-444] | 80 to 100 | A (A indicates that the inhibition rate was greater than or equal to 80% to 100%) | A (A indicates that the inhibition rate was greater than or equal to 80% to 100%) | 80 to 100 | – | – | –
11 | C=C[C@]1(C(=O)N[C@H]2C=C[C@@H](C(=O)OC3CCC3)C2)CC(c2cc(Cl)cc(C(F)(F)F)c2)=NO1 [I-478] | 80 to 100 | – | – | 80 to 100 | A (A indicates that the inhibition rate was greater than or equal to 80% to 100%) | A (A indicates that the inhibition rate was greater than or equal to 80% to 100%) | Herbicidal activity (inhibition rate class), Lolium multiflorum (Lolium multiflorum; Dosage 120 g a.i./ha): B (B indicates that the inhibition rate was greater than or equal to 60% to less than 80%); Herbicidal activity (inhibition rate class), Alopecurus japonicus (Alopecurus japonicus; Dosage 120 g a.i./ha): A (A indicates that the inhibition rate was greater than or equal to 80% to 100%); Herbicidal activity (inhibition rate class), Alopecurus myosuroides (Alopecurus myosuroides; Dosage 120 g a.i./ha): A (A indicates that the inhibition rate was greater than or equal to 80% to 100%)
12 | O=C(N[C@H]1C[C@@H](C(=O)OCC(F)(F)C(F)(F)F)C1)[C@@]1(C(F)(F)F)CC(c2cc(F)cc(OC(F)(F)F)c2)=NO1 [I-254] | 80 to 100 | A (A indicates that the inhibition rate was greater than or equal to 80% to 100%) | A (A indicates that the inhibition rate was greater than or equal to 80% to 100%) | 80 to 100 | – | – | Herbicidal activities, Alopecurus japonicus (inhibition rate class) (Alopecurus japonicus; Dosage 120 g a.i./ha): A (A indicates that the inhibition rate was greater than or equal to 80% to 100%); Herbicidal activities, Alopecurus myosuroides (inhibition rate class) (Alopecurus myosuroides; Dosage 120 g a.i./ha): A (A indicates that the inhibition rate was greater than or equal to 80% to 100%)
